Measured values published in patent US20130143902A1, “COMPOSITIONS AND METHODS OF TREATING A PROLIFERATIVE DISEASE WITH A QUINAZOLINONE DERIVATIVE” (GILEAD CALISTOGA LLC, priority 2011, published 2013).
“And” between values parts separate entries of the source, which are not always exact repeats. Identical values can stand only once. Like-named read-outs stand apart in the source and are kept apart here.

Legend:
[1] = In vivo PK (cannulated rat, IV and PO); settings: for half-life: read-out: T½ (converted)
[2] = tested on: pAkt in B Cell Malignancies; test: pAkt activity, B cell malignancies; format: cell-based; settings: N = 7
Source text: (§1) Cellular viability and pAkt activity were used to determine effects of Compounds A, C, and D in solid tumor, B-cell malignancies, and T-cell malignancies.

T Cell Malignancies = test: Cellular viability, T cell malignancies; format: cell-based; settings: N = 7
Source text: as §1

PC3 = test: pAkt pathway inhibition, PC3; format: cell-based; settings: Homo sapiens, PC-3; PC3, Prostate
UACC-62 = test: pAkt pathway inhibition, UACC-62; format: cell-based; settings: Homo sapiens; UACC-62, Melanoma
OVCAR-3 = test: pAkt pathway inhibition, OVCAR-3; format: cell-based; settings: Homo sapiens; OVCAR-3, Ovarian
MDA-MB-468 = test: pAkt pathway inhibition, MDA-MB-468; format: cell-based; settings: Homo sapiens; MDA-MB-468, Breast
U138MG = test: pAkt pathway inhibition, U138MG; format: cell-based; settings: Homo sapiens, U138-MG, Glioma
U251 = test: pAkt pathway inhibition, U251; format: cell-based; settings: Homo sapiens, U-251; U251, Glioma
T47D = test: Viability (AlamarBlue), T47D; format: cell-based; settings: Homo sapiens, Breast
Description: (§2) For primary T-ALL samples, cell viability was determined using the BD Cell Viability kit (BD Biosciences) and fluorescent counting beads as previously described in Armstrong, F. et al., NOTCH is a key regulator of human T-cell acute leukemia initiating cell activity, Blood 113, 1730-1740 (2009). Cells were plated with MS5-DL1 stroma cells. After 72 hours following treatment, cells were harvested and stained with an APC-conjugated anti-human CD45 according to the manufacturer's instructions. For solid tumor cell lines, cellular viability was determined using the AlamarBlue kit (Invitrogen). About 10,000 cells in 100 μL of media containing 10% FBS were aliquoted into individual wells of a 96-well plate and treated with vehicle (DMSO) or compound in triplicate for 24 hours. Ten μL of AlamarBlue reagent was added to each well and incubated for 4 hours at 37° C. with 5% CO2. Fluorescence was measured with an excitation wavelength at 530 to 560 nm and emission wavelength at 590 nm using Spectramax M5 plate reader (Molecular Devices, Sunnyvale, Calif.).

LN229 = test: Viability (AlamarBlue), LN229; format: cell-based; settings: Homo sapiens, LN-229; LN229, Glioma
Description: as §2

PTEN null T-ALL = test: Diseased Lck/PTEN^fl/fl mice with PTEN null T-ALL; format: in vivo; settings: 30 mg/kg BID; for leukemia cells: about 125 million at Day 0
Description: Mouse whole blood was incubated with appropriate antibodies and processed using the BD Bioscience BD FACS Lysing Solution according to the manufacturer's instructions. Immediately after lysis, cells were permeabilized with 0.025% Tween-20 in lysing solution for 15 minutes, then incubated with Ki67 antibodies. Single cell suspensions of thymocytes were isolated and stained with the appropriate antibodies as described in Swat, W. et al., Essential role of PI3 Kdelta and PI3 Kgamma in thymocyte survival, Blood 107, 2415-2422 (2006).
All mice were kept in specific pathogen-free facility at Columbia University Medical Center. All procedures were performed in accordance with the guidelines of the Institutional Animal Care and Use Committee. Lck-cre, NOD.Cg-Prkdc^scid Il2rg^tmlWjl/Sz and Gt(ROSA)26Sor^tml(Luc)Kael/J mice were obtained from the Jackson Laboratory. Mice deficient for PTEN in the T-cell lineage were generated by crossing Lck-cre with floxed PTEN. P110γ^−/− and p110δ^−/− mice as described in Swat, W. et al., Essential role of PI3 Kdelta and PI3 Kgamma in thymocyte survival, Blood 107, 2415-2422 (2006). The animals were intercrossed with Lck-cre/PTEN^fl/fl animals to generate mice homozygous mutant for either p110γ or p110δ and PTEN or homozygous mutant for p110γ, 110δ, and PTEN.
Lck/PTEN^fl/fl mice were crossed with the mice having a luciferase cDNA, preceded by a LoxP-stop-LoxP cassette was introduced into the ubiquitously expressed ROSA26 locus. […] The results are consistent with the reduction in whole blood cells and CD4 single positive population of tumor cells.
Lck/PTEN^fl/fl mice having T-ALL were administered with Compound B at an oral dose of 10 mg/kg every 8 hours or DMSO vehicle for a period of 7 days. […] Compound B extended the median survival to 45 days compared to 7.5 days for the vehicle group (data not shown).
Diseased Lck/PTEN^fl/fl mice (i.e. Lck/PTEN^fl/fl mice diagnosed with T-ALL) were treated with Compounds B for a period of 7 days. Mice were examined for sequential blood counts, peripheral smears, and flow cytometric analyses. […] Forward scatter (FSC) and Ki67 staining were indicators of cell size and proliferation, respectively; and apoptosis was detected by assessing the […] population after PI staining.
PTEN^fl/fl mice were crossed with the mice having a luciferase cDNA, preceded by a LoxP-stop-LoxP cassette was introduced into the ubiquitously expressed ROSA26 locus. Progeny were then crossed with Lck-cre transgenics to delete PTEN in T-cell progenitors and induce expression of luciferase. Imaging on T-ALL tumor bearing mice was performed at Day 0 and 4 after treatment of Compound B or vehicle.

[3] = IV 1 mg/kg, individual rats, 1 mg/kg
[4] = rat, plasma, iv, 1 mg/kg, IV 1 mg/kg, individual rats
[5] = rat, plasma, iv, 1 mg/kg, IV 1 mg/kg, mean of 3 rats
[6] = rat, plasma, po, 3 mg/kg, PO 3 mg/kg, individual rats
[7] = rat, plasma, po, 3 mg/kg, PO 3 mg/kg, mean of 3 rats
[8] = rat, plasma, po, 30 mg/kg, PO 30 mg/kg, individual rats
[9] = rat, plasma, po, 30 mg/kg, PO 30 mg/kg, mean of 3 rats

CC(Nc1ncnc2[nH]cnc12)c1nc2cccc(Cl)c2c(=O)n1-c1ccccc1 (stereo not drawn) [Compound A, 2-(1-(9H-purin-6-ylamino)ethyl)-5-chloro-3-phenylquinazolin-4(3H)-one]
Vss [1, 3]: 1.32 L/kg and 1.674 L/kg
Vz [1, 3]: 5.849 L/kg and 1.768 L/kg
Bioavailability ([1]; PO 3 mg/kg, individual rats (Rat 1, 2, 3), 3 mg/kg): 81% and 37%
Cmax ([1]; PO 3 mg/kg, individual rats, 3 mg/kg): 457 ng/mL and 345 ng/mL
Bioavailability ([1]; PO 30 mg/kg, individual rats (Rat 4, 5, 6), 30 mg/kg): 138% and 128% and 87%
Cmax ([1]; PO 30 mg/kg, individual rats, 30 mg/kg): 5770 ng/mL and 4320 ng/mL
AUC ([1]; plasma, Rat, PO 3 mg/kg (Table 4)): 2000 ng·h/mL
clearance ([1]; rat, plasma, iv, 1 mg/kg, IV 1 mg/kg (Table 4)): 15.2 mL/min/kg
AUC(0-inf) [1, 4]: 1050 ng·h/mL
AUC(0-t) [1, 4]: 1040 ng·h/mL
Vd ([1]; rat, plasma, iv, 1 mg/kg, IV 1 mg/kg, individual rats, read-out: Vss): 2.64 L/kg
AUC(0-inf) [1, 5]: 1130 ng·h/mL
AUC(0-t) [1, 5]: 1100 ng·h/mL
Vd ([1]; rat, plasma, iv, 1 mg/kg, IV 1 mg/kg, mean of 3 rats, read-out: Vss): 1.88 L/kg
Vd ([1]; rat, plasma, iv, 1 mg/kg, IV 1 mg/kg, mean of 3 rats, read-out: Vz): 2.99 L/kg
Vd ([1]; rat, plasma, iv, 1 mg/kg, Rat, IV 1 mg/kg (Table 4), read-out: Vz): 2.99 L/kg
Tmax ([1]; rat, plasma, po, 3 mg/kg, PO 3 mg/kg (Table 4)): 1.3 h
Tmax [1, 6]: 1 h
Cmax ([1]; rat, plasma, po, 3 mg/kg, PO 3 mg/kg, individual rats, read-out: Cmax): 568 ng/mL
half-life [1, 6]: 2.9 h
AUC(0-inf) [1, 7]: 2010 ng·h/mL
AUC(0-t) [1, 7]: 2000 ng·h/mL
Bioavailability ([1]; rat, plasma, po, 3 mg/kg, PO 3 mg/kg, mean of 3 rats, read-out: Bioavailability): 59%
Cmax ([1]; rat, plasma, po, 3 mg/kg, PO 3 mg/kg, mean of 3 rats, read-out: Cmax): 456 ng/mL
Cmax ([1]; rat, plasma, po, 3 mg/kg, Rat, PO 3 mg/kg (Table 4), read-out: Cmax): 456 ng/mL
AUC(0-inf) [1, 8]: 46800 ng·h/mL
Tmax [1, 8]: 4 h
Cmax ([1]; rat, plasma, po, 30 mg/kg, PO 30 mg/kg, individual rats, read-out: Cmax): 5800 ng/mL
half-life [1, 8]: 2.27 h
AUC(0-inf) [1, 9]: 40000 ng·h/mL
AUC(0-t) [1, 9]: 40000 ng·h/mL
Bioavailability ([1]; rat, plasma, po, 30 mg/kg, PO 30 mg/kg, mean of 3 rats, read-out: Bioavailability): 118%
Cmax ([1]; rat, plasma, po, 30 mg/kg, PO 30 mg/kg, mean of 3 rats, read-out: Cmax): 5300 ng/mL
time at which plasma levels peaked after administration ([1]; rats, single dose, over a period of 24 hours (data not shown)): 2 to 4 h
EC50 [2]: 0.184 µM
EC50 (T Cell Malignancies): 2.4 µM
EC50 (PC3): 155 nM
EC50 (UACC-62): 45 nM
EC50 (OVCAR-3): 647 nM
EC50 (MDA-MB-468): 56 nM
EC50 (U138MG): 2290 nM
EC50 (U251): 2250 nM
GI50 (T47D): 1.7 µM
GI50 (LN229): 3 µM
CD3 levels (PTEN null T-ALL): reduced
leukemia cells (PTEN null T-ALL; Day 4): about 5.6 million
leukemia cells (PTEN null T-ALL; Day 7): about 4.2 million
white blood cells (PTEN null T-ALL; by Day 4): significant reduction
